Results on 22 compounds are retold here after US20100137313A1 (ASTRAZENECA AB, priority 2008, published 2010).

Sequence of S. pneumoniae Topoisomerase IV ATPase (ParE) (Q59961 whole entry): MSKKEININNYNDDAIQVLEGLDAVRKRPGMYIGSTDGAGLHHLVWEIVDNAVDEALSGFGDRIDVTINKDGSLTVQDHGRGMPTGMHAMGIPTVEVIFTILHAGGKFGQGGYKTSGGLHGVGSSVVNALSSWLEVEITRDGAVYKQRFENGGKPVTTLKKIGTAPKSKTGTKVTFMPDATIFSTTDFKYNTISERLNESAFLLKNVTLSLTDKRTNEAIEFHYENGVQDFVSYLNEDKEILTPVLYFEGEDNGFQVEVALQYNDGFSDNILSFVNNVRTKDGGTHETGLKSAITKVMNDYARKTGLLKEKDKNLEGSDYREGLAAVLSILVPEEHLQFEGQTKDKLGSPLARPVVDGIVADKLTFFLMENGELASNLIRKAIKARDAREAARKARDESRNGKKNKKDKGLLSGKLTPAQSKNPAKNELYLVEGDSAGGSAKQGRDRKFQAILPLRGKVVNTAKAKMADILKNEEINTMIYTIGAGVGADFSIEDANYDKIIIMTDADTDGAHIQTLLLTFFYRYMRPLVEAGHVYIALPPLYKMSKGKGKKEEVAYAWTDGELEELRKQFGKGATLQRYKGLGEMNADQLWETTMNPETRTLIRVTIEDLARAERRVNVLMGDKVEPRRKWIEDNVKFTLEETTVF

The assay has as its target S. pneumoniae Topoisomerase IV ATPase (ParE) (Streptococcus pneumoniae serotype 4, UniProt Q59961). Nature of the assay: S. pneumoniae Topoisomerase IV ATPase inhibition. The assay is classed as biochemical. The conditions noted are these: values marked * are an average of two or more data points, read-out: % Inh (13 μM) of S. pneumoniae Topoisomerase IV ATPase. In a few lines:
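Malachite green/ammonium molybdate phosphate detection, A650. 1.25 nM ParE, 160 μM ATP, sheared salmon sperm DNA 5 μg/ml, 20 mM Tris pH 8.0, 8.0 mM MgCl2. Controls: 2% DMSO = 0%, 20 μM EDTA = 100% inhibition; IC50 over 10 concentrations.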
`COc1ccc(-c2cnc(Nc3ccc(F)c(Cl)c3)nc2-n2ccc(C(F)(F)F)n2)cc1C(=O)O` [Example 1074, 5-(2-(3-Chloro-4-fluorophenylamino)-4-(3-(trifluoromethyl)-1H-pyrazol-1-yl)pyrimidin-5-yl)-2-methoxybenzoic acid]: the inhibition at 13 µM came out at 100%.
With `COc1ncc(-c2cnc(Nc3ccc(F)c(Cl)c3)nc2-n2nc(C(F)(F)F)cc2C)cc1C(=O)O` [Example 1067, 5-(2-(3-chloro-4-fluorophenylamino)-4-(5-methyl-3-(trifluoromethyl)-1H-pyrazol-1-yl)pyrimidin-5-yl)-2-methoxynicotinic acid], the inhibition at 13 µM is 98%.
In the case of `Cc1cc(C(F)(F)F)nn1-c1nc(Nc2ccc3c(c2)OCO3)ncc1-c1cccc(/C=C/C(=O)O)c1` [Example 658, (2E)-3-(3-{2-(1,3-benzodioxol-5-ylamino)-4-[5-methyl-3-(trifluoromethyl)-1H-pyrazol-1-yl]pyrimidin-5-yl}phenyl)prop-2-enoic acid] it was 96%; in that of `COc1ncc(-c2cnc(Nc3cccc(C(C)=O)c3)nc2-n2nc(C(F)(F)F)cc2C)cc1C(=O)O` [Example 721, 5-{2-[(3-acetylphenyl)amino]-4-[5-methyl-3-(trifluoromethyl)-1H-pyrazol-1-yl]pyrimidin-5-yl}-2-methoxypyridine-3-carboxylic acid], 100%; in that of `O=C(O)c1cncc(-c2cnc(Nc3ccc(F)c(Cl)c3)nc2-n2cnc(C(F)(F)F)c2)c1` [Example 328, 5-{2-[(3-chloro-4-fluorophenyl)amino]-4-[4-(trifluoromethyl)-1H-imidazol-1-yl]pyrimidin-5-yl}pyridine-3-carboxylic acid], 70.8%.
In the case of `Cc1cc(C(F)(F)F)nn1-c1nc(Nc2cc(F)cc(F)c2)ncc1-c1cncc(C(=O)O)c1` [Example 640, 5-{2-[(3,5-difluorophenyl)amino]-4-[5-methyl-3-(trifluoromethyl)-1H-pyrazol-1-yl]pyrimidin-5-yl}pyridine-3-carboxylic acid] it was 100%; in that of `CN(C)CCCNc1nc(Nc2ccc(F)c(Cl)c2)ncc1-c1ccc(C(=O)NCc2ccccc2)s1` [Example 368, N-benzyl-5-(2-(3-chloro-4-fluorophenylamino)-4-(3-(dimethylamino)propylamino)pyrimidin-5-yl) thiophene-2-carboxamide], 105%.
On to `COc1cc(C#N)cc(Nc2ncc(-c3cccc(/C=C/C(=O)O)c3)c(-n3ccc(C(F)(F)F)n3)n2)c1` [Example 728, (2E)-3-(3-{2-[(3-cyano-5-methoxyphenyl)amino]-4-[3-(trifluoromethyl)-1H-pyrazol-1-yl]pyrimidin-5-yl}phenyl)prop-2-enoic acid], for which the inhibition at 13 µM turned out to be 100%.
With `Cc1cc(C(F)(F)F)nn1-c1nc(Nc2cc(F)cc(F)c2)ncc1-c1cccc(/C=C/C(=O)O)c1` [Example 620, (2E)-3-(3-{2-[(3,5-difluorophenyl)amino]-4-[5-methyl-3-(trifluoromethyl)-1H-pyrazol-1-yl]pyrimidin-5-yl}phenyl)prop-2-enoic acid] the figure was 96%.
With `COCCCNc1nc(Nc2ccc(F)c(Cl)c2)ncc1-c1ccc2sc(C(=O)O)cc2c1` [Example 307, 5-(2-(3-choloro-4-fluorophenylamino)-4-(3-methoxypropylamino)-pyrimidin-5-yl)benzo[b]thiophene-2-carboxylic acid] the figure was 80.6%.
On to `NC(=O)c1cncc(-c2cnc(Nc3ccc(F)c(Cl)c3)nc2-n2cc(-c3ccncn3)cn2)c1` [Example 543, 5-{2-[(3-chloro-4-fluorophenyl)amino]-4-[4-(pyrimidin-4-yl)-1H-pyrazol-1-yl]pyrimidin-5-yl}pyridine-3-carboxamide], for which the inhibition at 13 µM was found to be 68%.
`CN(C)CCCNc1nc(Nc2ccc(F)c(F)c2)ncc1-c1ccc(C(=O)O)s1` [Example 335, 5-(2-(3,4-difluorophenylamino)-4-(3-(dimethylamino)propylamino)pyrimidin-5-yl)thiophene-2-carboxylic acid]: the inhibition at 13 µM is 76.5%.
On to `O=C(O)/C=C/c1cccc(-c2cnc(Nc3ccc(F)c(Cl)c3)nc2-n2nccn2)c1` [Example 324, (2E)-3-(3-{2-[(3-chloro-4-fluorophenyl)amino]-4-(2H-1,2,3-triazol-2-yl)pyrimidin-5-yl}phenyl)prop-2-enoic acid], for which the inhibition at 13 µM was determined as 76.9%.
In the case of `CN(C)CCCNc1nc(Nc2ccc(F)c(Cl)c2)ncc1-c1cccc(NS(=O)(=O)N(C)C)c1` [Example 11, N′-[3-(2-[(3-chloro-4-fluorophenyl)amino]-4-{[3-(dimethylamino)propyl]amino}pyrimidin-5-yl)phenyl]-N,N-dimethylsulfonamide] it was 18.2%; in that of `COc1cc(Nc2ncc(-c3cnc(OC)c(-c4nnn[nH]4)c3)c(-n3nc(C(F)(F)F)cc3C)n2)cc(OC)c1` [Example 873, N-(3,5-dimethoxyphenyl)-5-(6-methoxy-5-(1H-tetrazol-5-yl)pyridin-3-yl)-4-(5-methyl-3-(trifluoromethyl)-1H-pyrazol-1-yl)pyrimidin-2-amine], 100%; in that of `Cc1cc(C)cc(Nc2ncc(-c3cc(C(=O)O)c(=O)n(C)c3)c(-n3ccc(C(F)(F)F)n3)n2)c1` [Example 922, 5-(2-(3,5-dimethylphenylamino)-4-(3-(trifluoromethyl)-1H-pyrazol-1-yl)pyrimidin-5-yl)-1-methyl-2-oxo-1,2-dihydropyridine-3-carboxylic acid], 100%.
For the compound `COc1ncc(-c2cnc(Nc3ccc(F)c(Cl)c3)nc2NC2CCOC2)cn1` (stereo not shown) [Example 940, N2-(3-chloro-4-fluorophenyl)-2′-methoxy-N4-(tetrahydrofuran-3-yl)-5,5′-bipyrimidine-2,4-diamine], the inhibition at 13 µM is 76%.
As to `O=C(O)c1cc(-c2cnc(Nc3ccc(F)c(Cl)c3)nc2N2CCOCC2)ccn1` [Example 493, 4-{2-[(3-chloro-4-fluorophenyl)amino]-4-(morpholin-4-yl)pyrimidin-5-yl}pyridine-2-carboxylic acid], the inhibition at 13 µM stood at 9%.
With `CC(=O)N1CCN(c2nc(Nc3ccc(F)c(Cl)c3)ncc2-c2cncc(C(=O)O)c2)CC1` [Example 276, 5-(4-(4-acetylpiperazin-1-yl)-2-(3-chloro-4-fluorophenylamino)-pyrimidin-5-yl)nicotinic acid] the figure was 80.3%; with `COC1CCN(c2nc(Nc3ccc(F)c(Cl)c3)ncc2-c2cncnc2)CC1` [Example 65, N-(3-chloro-4-fluorophenyl)-4-(4-methoxypiperidin-1-yl)-5-pyrimidin-5-ylpyrimidin-2-amine], 75.9%.
In the case of `COc1cc(Nc2ncc(-c3cncnc3)c(-n3nc(C(F)(F)F)cc3C)n2)cc(C(F)(F)F)c1` [Example 882, N-(3-methoxy-5-(trifluoromethyl)phenyl)-4-(5-methyl-3-(trifluoromethyl)-1H-pyrazol-1-yl)-5,5′-bipyrimidin-2-amine] it was 100%; in that of `CCC(C)Nc1nc(Nc2ccc(F)c(Cl)c2)ncc1-c1ccc(OC)c(C(F)(F)F)c1` (stereo not shown) [Example 1109, N′-butan-2-yl-N-(3-chloro-4-fluorophenyl)-5-[4-methoxy-3-(trifluoromethyl)phenyl]pyrimidine-2,4-diamine], 28%.
